The values below come from patent publication US20060160863A1, “Polymorphic and amorphous forms of 2-{3-[(E)-2-(4,6-dimethyl-pyridin-2-yl)-vinyl]-1H-indazol-6-ylamino}-N-(4-hydroxy-but-2-ynyl)benzamide” (AGOURON PHARMACEUTICALS, INC., priority 2005, published 2006).

In brackets after ≈: the same amount, converted by molar mass.

The data set can be described thus: aqueous solubility in 0.1 M sodium phosphate buffer (pH 7.4). In kind it is physicochemical. An excerpt: The present invention provides several polymorph crystalline forms and an amorphous form of the compound of Formula I. Each crystalline or amorphous form of the compound can be characterized by one or more of the following: X-ray powder diffraction pattern (i.e., X-ray diffraction peaks at various diffraction angles (2θ), melting point onset (and onset of dehydration for hydrated forms) as illustrated by endotherms of a Differential Scanning Calorimetry (DSC) thermogram, aqueous solubility, light stability under International Conference on Harmonization (ICH) high intensity light conditions, and physical and chemical storage stability.
`Cc1cc(C)nc(/C=C/c2n[nH]c3cc(Nc4ccccc4C(=O)NCC#CCO)ccc23)c1` [Form II, 2-{3-[(E)-2-(4,6-dimethyl-pyridin-2-yl)-vinyl]-1H-indazol-6-ylamino}-N-(4-hydroxy-but-2-ynyl)-benzamide] had an aqueous solubility of 1.3 µg/mL (≈ 2.88 µM).
With `Cc1cc(C)nc(/C=C/c2n[nH]c3cc(Nc4ccccc4C(=O)NCC#CCO)ccc23)c1` [Form IV, 2-{3-[(E)-2-(4,6-dimethyl-pyridin-2-yl)-vinyl]-1H-indazol-6-ylamino}-N-(4-hydroxy-but-2-ynyl)-benzamide], the aqueous solubility stood at 1.3 µg/mL (≈ 2.88 µM).
`Cc1cc(C)nc(/C=C/c2n[nH]c3cc(Nc4ccccc4C(=O)NCC#CCO)ccc23)c1` [Form Ia, 2-{3-[(E)-2-(4,6-dimethyl-pyridin-2-yl)-vinyl]-1H-indazol-6-ylamino}-N-(4-hydroxy-but-2-ynyl)-benzamide] showed an aqueous solubility of 0.8 µg/mL (≈ 1.77 µM).
In turn, `Cc1cc(C)nc(/C=C/c2n[nH]c3cc(Nc4ccccc4C(=O)NCC#CCO)ccc23)c1` [Form III, 2-{3-[(E)-2-(4,6-dimethyl-pyridin-2-yl)-vinyl]-1H-indazol-6-ylamino}-N-(4-hydroxy-but-2-ynyl)-benzamide] yielded an aqueous solubility of 3.2 µg/mL (≈ 7.09 µM).

For orientation: aqueous solubility means the concentration that dissolves in the medium under given conditions.
